Measured values taken from EPA's ToxRefDB 2.

Legend:
rat [1] = details: Subchronic oral toxicity in rodents, sprague dawley, Gavage/Intubation, dose end: 93 day, group: systemic
rabbit [2] = details: Sub-acute repeat dose toxicity; new zealand white; Oral; Gavage/Intubation; dose end: 4 day; group: systemic; systemic / in life observation / body weight / body weight + systemic / in life observation / food consumption / food consumption
dog [3] = details: Sub-acute repeat dose toxicity, beagle, Oral, Gavage/Intubation, dose end: 5 day, group: systemic
rat [4] = details: Sub-acute repeat dose toxicity, sprague dawley, Oral, Gavage/Intubation, dose end: 7 day, group: systemic
dog [5] = details: Sub-acute repeat dose toxicity; beagle; Oral; Gavage/Intubation; dose end: 5 day; group: systemic; systemic / in life observation / clinical signs / abnormal feces
dog [6] = details: Sub-acute repeat dose toxicity; beagle; Oral; Gavage/Intubation; dose end: 14 day; group: systemic; systemic / in life observation / clinical signs / emesis + systemic / in life observation / clinical signs / tremors + systemic / in life …
dog [7] = details: Subchronic oral toxicity in nonrodent, beagle, Gavage/Intubation, dose end: 93 day, group: systemic
rat [8] = details: Sub-acute repeat dose toxicity; sprague dawley; Oral; Gavage/Intubation; dose end: 4 day; group: systemic; systemic / in life observation / clinical signs / respiration (rales) + systemic / in life observation / mortality / mortality + systemic / …
rat [9] = details: Sub-acute repeat dose toxicity; sprague dawley; Oral; Gavage/Intubation; dose end: 14 day; group: systemic; systemic / clinical chemistry / 5' nucleotidase / 5' nucleotidase + systemic / clinical chemistry / alanine aminotransferase (alt/sgpt) / …
rabbit [10] = details: Sub-acute repeat dose toxicity, new zealand white, Oral, Gavage/Intubation, dose end: 5 day, group: systemic
dog [11] = details: Sub-acute repeat dose toxicity; beagle; Oral; Capsule; dose end: 28 day; group: systemic; systemic / pathology microscopic / heart / lesion(s) (nos)
rabbit [12] = details: Prenatal developmental toxicity study; new zealand white; Oral; Feed; dose end: 29 GD; group: developmental; developmental / developmental malformation / bone / absent + developmental / developmental malformation / bone / incomplete ossification + …
rat [13] = details: Sub-acute repeat dose toxicity, sprague dawley, Oral, Feed, dose end: 28 day, group: systemic
dog [14] = details: Chronic toxicity, beagle, Oral, Capsule, dose end: 1 year, group: systemic
rat [15] = details: Sub-acute repeat dose toxicity, sprague dawley, Oral, Feed, dose end: 28 day, group: systemic; remark: listed apart in the source
rabbit [16] = details: Prenatal developmental toxicity study, new zealand white, Oral, Gavage/Intubation, dose end: 29 GD
[17] = systemic / in life observation / clinical signs / abnormal respiratory sounds + systemic / in life observation / clinical signs / salivation
[18] = systemic / organ weight / adrenal gland / absolute + systemic / in life observation / food consumption / food consumption + systemic / …
[19] = systemic / in life observation / clinical signs / abnormal feces + systemic / in life observation / clinical signs / arrhythmia + systemic…
[20] = systemic / in life observation / clinical signs / salivation
[21] = systemic / clinical chemistry / albumin-globulin ratio / albumin-globulin ratio + systemic / clinical chemistry / cholesterol / cholesterol…
[22] = systemic / in life observation / clinical signs / salivation + systemic / pathology microscopic / liver / vacuolization
[23] = systemic / in life observation / clinical signs / abnormal feces + systemic / in life observation / clinical signs / salivation
[24] = systemic / in life observation / clinical signs / emesis + systemic / organ weight / adrenal gland / absolute + systemic / clinical …
[25] = systemic / in life observation / body weight / body weight + systemic / in life observation / clinical signs / erythema
[26] = systemic / in life observation / clinical signs / erythema
[27] = systemic / in life observation / body weight / body weight + systemic / in life observation / body weight / body weight gain + systemic / in…
[28] = systemic / in life observation / body weight / body weight gain
[29] = systemic / pathology microscopic / heart / lesion(s) (nos) + systemic / pathology microscopic / heart / fibrosis
[30] = group: developmental, developmental / developmental malformation / bone / absent + developmental / developmental malformation / bone / incomplete ossification + …
[31] = group: maternal, reproductive / reproductive performance / aborted / aborted + reproductive / reproductive performance / resorptions / resorptions + systemic…

For `COc1ccc(C(C)(C)C)cc1CN[C@H]1C2CCN(CC2)[C@H]1C(c1ccccc1)c1ccccc1`, the LEL (rat [1]; [17]) was 5 mg/kg/day, the NEL (rat [1]; [17]) was < 5 mg/kg/day and the LOAEL (rat [1]; [18]) was > 150 mg/kg/day. For the same molecule, the NOAEL (rat [1]; [18]) was ≥ 150 mg/kg/day, the LOAEL (rabbit [2]) was > 150 mg/kg/day and the NEL (rabbit [2]) was 30 mg/kg/day. The NOAEL (rabbit [2]) was ≥ 150 mg/kg/day, the LOAEL (dog [3]; [19]) was > 20 mg/kg/day and the NOAEL (dog [3]; [19]) was ≥ 20 mg/kg/day. The LEL (dog [3]; [20]) was 5 mg/kg/day, the NEL (dog [3]; [20]) was < 5 mg/kg/day and the LOAEL (rat [4]; [21]) was > 100 mg/kg/day. The NOAEL (rat [4]; [21]) was ≥ 100 mg/kg/day, the LEL (rat [4]; [22]) was 30 mg/kg/day and the NEL (rat [4]; [22]) was < 30 mg/kg/day. The LEL (dog [5]) was 5 mg/kg/day, the LOAEL (dog [5]) was > 20 mg/kg/day and the NEL (dog [5]) was < 5 mg/kg/day. For the same molecule, the NOAEL (dog [5]) was ≥ 20 mg/kg/day, the LEL (dog [6]) was 20 mg/kg/day and the LOAEL (dog [6]) was > 20 mg/kg/day. The NEL (dog [6]) was < 20 mg/kg/day, the NOAEL (dog [6]) was ≥ 20 mg/kg/day and the LEL (dog [7]; [23]) was 1 mg/kg/day. The NEL (dog [7]; [23]) was < 1 mg/kg/day, the LOAEL (dog [7]; [24]) was > 20 mg/kg/day and the NOAEL (dog [7]; [24]) was ≥ 20 mg/kg/day. The LEL (rat [8]) was 300 mg/kg/day, the LOAEL (rat [8]) was > 300 mg/kg/day and the NEL (rat [8]) was < 300 mg/kg/day. The NOAEL (rat [8]) was ≥ 300 mg/kg/day, the LOAEL (rat [9]) was > 500 mg/kg/day and the NEL (rat [9]) was < 150 mg/kg/day. The NOAEL (rat [9]) was ≥ 500 mg/kg/day, the LOAEL (rabbit [10]; [25]) was > 150 mg/kg/day and the NOAEL (rabbit [10]; [25]) was ≥ 150 mg/kg/day. For the same molecule, the LEL (rabbit [10]; [26]) was 5 mg/kg/day and the NEL (rabbit [10]; [26]) was < 5 mg/kg/day.

With `Cn1cnc2c1c(=O)[nH]c(=O)n2C` [Theobromine] the LEL (dog [11]) was 100 mg/kg/day, the LOAEL (dog [11]) was > 150 mg/kg/day and the NEL (dog [11]) was 75 mg/kg/day. The NOAEL (dog [11]) was ≥ 150 mg/kg/day, the LEL (rabbit [12]) was 41 mg/kg/day and the LOAEL (rabbit [12]) was > 63 mg/kg/day. The NEL (rabbit [12]) was 21 mg/kg/day, the NOAEL (rabbit [12]) was ≥ 63 mg/kg/day and the LOAEL (rat [13]; [27]) was > 492 mg/kg/day. The NOAEL (rat [13]; [27]) was ≥ 492 mg/kg/day, the LEL (rat [13]; [28]) was 94 mg/kg/day and the NEL (rat [13]; [28]) was < 94 mg/kg/day. The LEL (dog [14]; systemic / pathology microscopic / heart / lesion(s) (nos)) was 100 mg/kg/day, the LOAEL (dog [14]; [29]) was > 150 mg/kg/day and the NOAEL (dog [14]; [29]) was ≥ 150 mg/kg/day. For the same molecule, the LOAEL (rat [15]; [27]) was > 912 mg/kg/day, the NOAEL (rat [15]; [27]) was ≥ 912 mg/kg/day and the LEL (rat [15]; systemic / in life observation / body weight / body weight + systemic / in life observation / food consumption / food consumption) was 389 mg/kg/day. For the same molecule, the NEL (rat [15]; systemic / in life observation / body weight / body weight + systemic / in life observation / food consumption / food consumption + systemic…) was 200 mg/kg/day, the LEL (rabbit [16]; group: developmental, developmental / developmental malformation / bone / absent + developmental / developmental malformation / bone / incomplete ossification) was 75 mg/kg/day and the LOAEL (rabbit [16]; [30]) was > 200 mg/kg/day. For the same molecule, the NEL (rabbit [16]; [30]) was 25 mg/kg/day, the NOAEL (rabbit [16]; [30]) was ≥ 200 mg/kg/day and the LOAEL (rabbit [16]; [31]) was > 200 mg/kg/day. For the same molecule, the NEL (rabbit [16]; [31]) was 25 mg/kg/day, the NOAEL (rabbit [16]; [31]) was ≥ 200 mg/kg/day and the LEL (rabbit [16]; group: maternal, reproductive / reproductive performance / resorptions / resorptions + reproductive / offspring survival early / dead fetuses / dead fetuses) was 75 mg/kg/day.
